# Data as given in PubChem BioAssay (NCI).
#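 The concentration for 50% growth inhibition is given as GI50. Definition used: TGI = concentration required for complete inhibition of growth.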
# Key:
# Assay in all cases: growth of human tumour cells (NCI), 384-well format
# COLO 205 colon = system: COLO 205 colon
# MDA-MB-435 melanoma = system: MDA-MB-435 melanoma
# UACC-62 melanoma = system: UACC-62 melanoma
# OVCAR-3 ovarian = system: OVCAR-3 ovarian
# SW-620 colon = system: SW-620 colon
# ACHN renal = system: ACHN renal
# SR leukemia = system: SR leukemia
# NCI-H322M lung = system: NCI-H322M lung
# SF-295 CNS = system: SF-295 CNS
# SK-MEL-2 melanoma = system: SK-MEL-2 melanoma
# HT29 colon = system: HT29 colon
# PC-3 prostate = system: PC-3 prostate
# IGROV1 ovarian = system: IGROV1 ovarian
# MCF7 breast = system: MCF7 breast
# UACC-257 melanoma = system: UACC-257 melanoma
# SF-539 CNS = system: SF-539 CNS
# HL-60(TB) leukemia = system: HL-60(TB) leukemia
# SK-OV-3 ovarian = system: SK-OV-3 ovarian
# M14 melanoma = system: M14 melanoma
# NCI-H460 NSCLC = system: NCI-H460 NSCLC
# 786-0 renal = system: 786-0 renal
# OVCAR-5 ovarian = system: OVCAR-5 ovarian
# UO-31 renal = system: UO-31 renal
# K-562 leukemia = system: K-562 leukemia
# HOP-92 NSCLC = system: HOP-92 NSCLC
# TK-10 renal = system: TK-10 renal
# MALME-3M melanoma = system: MALME-3M melanoma
# NCI-H522 lung = system: NCI-H522 lung
# MOLT-4 leukemia = system: MOLT-4 leukemia
# NCI-H226 lung = system: NCI-H226 lung
# MDA-MB-468 breast = system: MDA-MB-468 breast
# U251 glioblastoma = system: U251 glioblastoma
# EKVX NSCLC = system: EKVX NSCLC
# SF-268 CNS = system: SF-268 CNS
# HOP-62 NSCLC = system: HOP-62 NSCLC
# CAKI-1 renal = system: CAKI-1 renal
# SNB-19 CNS = system: SNB-19 CNS
# HCT-116 colon = system: HCT-116 colon
# T-47D breast = system: T-47D breast
# SK-MEL-28 melanoma = system: SK-MEL-28 melanoma
# A549 NSCLC = system: A549 NSCLC
# MDA-MB-231 breast = system: MDA-MB-231 breast
# SNB-75 CNS = system: SNB-75 CNS
# RXF 393 renal = system: RXF 393 renal
# KM12 colon = system: KM12 colon
# BT-549 breast = system: BT-549 breast
# SK-MEL-5 melanoma = system: SK-MEL-5 melanoma
# NCI-H23 lung = system: NCI-H23 lung
# OVCAR-8 ovarian = system: OVCAR-8 ovarian
# DU-145 prostate = system: DU-145 prostate
# SN12C renal = system: SN12C renal
# HCT-15 colon = system: HCT-15 colon
# A498 renal = system: A498 renal
# OVCAR-4 ovarian = system: OVCAR-4 ovarian
compound,measurement,setting,value
CC[C@@]1(O)C(=O)OCc2c1cc1n(c2=O)Cc2c-1nc1cc(F)c(C)c3c1c2[C@@H](N)CC3,GI50,COLO 205 colon,< 10 nM
same,TGI,COLO 205 colon,159 nM
same,GI50,MDA-MB-435 melanoma,< 10 nM
same,TGI,MDA-MB-435 melanoma,177 nM
same,GI50,UACC-62 melanoma,< 10 nM
same,TGI,UACC-62 melanoma,< 10 nM
same,GI50,OVCAR-3 ovarian,< 10 nM
same,TGI,OVCAR-3 ovarian,31.7 nM
same,GI50,SW-620 colon,< 10 nM
same,TGI,SW-620 colon,108 nM
same,GI50,ACHN renal,< 10 nM
same,TGI,ACHN renal,< 10 nM
same,GI50,SR leukemia,< 10 nM
same,TGI,SR leukemia,< 10 nM
same,GI50,NCI-H322M lung,< 10 nM
same,TGI,NCI-H322M lung,17.4 nM
same,GI50,SF-295 CNS,< 10 nM
same,TGI,SF-295 CNS,< 10 nM
same,GI50,SK-MEL-2 melanoma,< 10 nM
same,TGI,SK-MEL-2 melanoma,29.2 nM
same,GI50,HT29 colon,< 10 nM
same,TGI,HT29 colon,10.7 nM
same,GI50,PC-3 prostate,< 10 nM
same,TGI,PC-3 prostate,1050 nM
same,GI50,IGROV1 ovarian,< 10 nM
same,TGI,IGROV1 ovarian,103 nM
same,GI50,MCF7 breast,< 10 nM
same,TGI,MCF7 breast,< 10 nM
same,GI50,UACC-257 melanoma,< 10 nM
same,TGI,UACC-257 melanoma,< 10 nM
same,GI50,SF-539 CNS,< 10 nM
same,TGI,SF-539 CNS,< 10 nM
same,GI50,HL-60(TB) leukemia,< 10 nM
same,TGI,HL-60(TB) leukemia,< 10 nM
same,GI50,SK-OV-3 ovarian,< 10 nM
same,TGI,SK-OV-3 ovarian,< 10 nM
same,GI50,M14 melanoma,< 10 nM
same,TGI,M14 melanoma,18.7 nM
same,GI50,NCI-H460 NSCLC,< 10 nM
same,TGI,NCI-H460 NSCLC,16.7 nM
same,GI50,786-0 renal,< 10 nM
same,TGI,786-0 renal,< 10 nM
same,GI50,OVCAR-5 ovarian,< 10 nM
same,TGI,OVCAR-5 ovarian,43 nM
same,GI50,UO-31 renal,< 10 nM
same,TGI,UO-31 renal,< 10 nM
same,GI50,K-562 leukemia,< 10 nM
same,TGI,K-562 leukemia,132 nM
same,GI50,HOP-92 NSCLC,< 10 nM
same,TGI,HOP-92 NSCLC,11 nM
same,GI50,TK-10 renal,< 10 nM
same,TGI,TK-10 renal,608 nM
same,GI50,MALME-3M melanoma,< 10 nM
same,TGI,MALME-3M melanoma,84 nM
same,GI50,NCI-H522 lung,< 10 nM
same,TGI,NCI-H522 lung,< 10 nM
same,GI50,MOLT-4 leukemia,< 10 nM
same,TGI,MOLT-4 leukemia,< 10 nM
same,GI50,NCI-H226 lung,< 10 nM
same,TGI,NCI-H226 lung,< 10 nM
same,GI50,MDA-MB-468 breast,< 10 nM
same,TGI,MDA-MB-468 breast,< 10 nM
same,GI50,U251 glioblastoma,< 10 nM
same,TGI,U251 glioblastoma,< 10 nM
same,GI50,EKVX NSCLC,< 10 nM
same,TGI,EKVX NSCLC,243 nM
same,GI50,SF-268 CNS,< 10 nM
same,TGI,SF-268 CNS,< 10 nM
same,GI50,HOP-62 NSCLC,< 10 nM
same,TGI,HOP-62 NSCLC,< 10 nM
same,GI50,CAKI-1 renal,< 10 nM
same,TGI,CAKI-1 renal,11.7 nM
same,GI50,SNB-19 CNS,< 10 nM
same,TGI,SNB-19 CNS,25.9 nM
same,GI50,HCT-116 colon,< 10 nM
same,TGI,HCT-116 colon,22.1 nM
same,GI50,T-47D breast,< 10 nM
same,TGI,T-47D breast,< 10 nM
same,GI50,SK-MEL-28 melanoma,< 10 nM
same,TGI,SK-MEL-28 melanoma,133 nM
same,GI50,A549 NSCLC,< 10 nM
same,TGI,A549 NSCLC,43.1 nM
same,GI50,MDA-MB-231 breast,23.3 nM
same,TGI,MDA-MB-231 breast,617 nM
same,GI50,SNB-75 CNS,< 10 nM
same,TGI,SNB-75 CNS,< 10 nM
same,GI50,RXF 393 renal,< 10 nM
same,TGI,RXF 393 renal,< 10 nM
same,GI50,KM12 colon,< 10 nM
same,TGI,KM12 colon,< 10 nM
same,GI50,BT-549 breast,< 10 nM
same,TGI,BT-549 breast,< 10 nM
same,GI50,SK-MEL-5 melanoma,< 10 nM
same,TGI,SK-MEL-5 melanoma,< 10 nM
same,GI50,NCI-H23 lung,< 10 nM
same,TGI,NCI-H23 lung,< 10 nM
same,GI50,OVCAR-8 ovarian,< 10 nM
same,TGI,OVCAR-8 ovarian,39.8 nM
same,GI50,DU-145 prostate,< 10 nM
same,TGI,DU-145 prostate,< 10 nM
same,GI50,SN12C renal,< 10 nM
same,TGI,SN12C renal,< 10 nM
same,GI50,HCT-15 colon,< 10 nM
same,TGI,HCT-15 colon,120 nM
same,GI50,A498 renal,< 10 nM
same,TGI,A498 renal,14.2 nM
same,GI50,OVCAR-4 ovarian,19 nM
same,TGI,OVCAR-4 ovarian,308 nM
